# Measurements published in patent US11014902B2, “MYC G-quadruplex stabilizing small molecules and their use” (The United States of America, as represented by the …, priority 2015, dated 2021).
# Read-outs that look alike come from different tables or passages of the source.
# Tests used:
# L363 cells = assay: L363 cell viability (MTS); format: cell-based, human; settings: for IC50: read-out: IC50; for viability at 10 µM: L-363, L363 cells
# Procedure: Since two thirds of multiple myeloma cases involve deregulated c-MYC expression (Kuehl and Bergsagel, Blood 2012, 120, 2351; Shou, et al., Proc Natl Acad Sci USA 2000, 97, 228), we elected to evaluate the cell viability effects of Compound 1 in a multiple myeloma model. […] This suppression was maintained over 72 hours, which is notable given the characteristic rapid replenishment of the protein—a phenomenon that complicates targeting c-Myc at the protein level (FIG. 4C). This effect was maintained across a genetically diverse set of 4 multiple myeloma lines. We observed decreases in c-MYC translation in all lines tested, and this effect also correlated with decreases in viability (FIG. 4D).
# Human multiple myeloma and Burkitt's Lymphoma cell lines L363, CA46, MM-1R, KMS-11, and MM-1S were cultured and authenticated as previously described (Simmons, et al., Molecular oncology 2014, 8, 261). All plasma derived cell lines were cultured in RPMI-1640 (2 mM L-glutamine, 10% fetal bovine serum (FBS), 100 U/ml penicillin, 100 μg/ml streptomycin: Gibco) and incubated at 37° C. with 5% CO2. Viability experiments were performed in quadruplicate on 96-well plates (Costar) at designated time and dose points. MTS reagent was then directly added, incubated at 37° C. for 90 min, and absorbance of MTS formazan was read at 500 nm on an Omega 640 spectrophotometer. Percentage cell viability was normalized to the absorbance of untreated (DMSO) wells. In the case of cells harvested for their protein or RNA, pellets were flash frozen and stored at −80° C. overnight prior to use. […]
# [1] = system: c-MYC expression in L363 cells; assay: Inhibition of c-MYC expression in L363 cells (Peggy); format: cell-based, human; settings: for Peggy (% c-Myc expression compared to untreated): L363 cells; for activity at 10 µM / Peggy (% c-Myc expression compared to untreated): at 10 μM
# Excerpt: FIG. 10 illustrates an exemplary procedure for generating analogs of Compound 1. The amine group of Compound 1 can be varied in reductive aminations to provide additional analogs. […] The table also provides an indication of an exemplary commercial source for the compounds, or (if applicable) an indication that the compound is new.
# [2] = system: c-MYC G4 DNA (biotin-labeled Pu22 G-quadruplex); assay: Surface plasmon resonance (SPR); format: binding; settings: same experiment as Compound 1
# Procedure: In order to quantitatively assess the binding affinity of Compound 1 with the c-MYC G4, surface plasmon resonance (SPR) experiments (De Crescenzo, et al., Cell Mol Bioeng 2008, 1, 204) were performed using a biotinylated c-MYC G4 oligonucleotide. The oligonucleotide was immobilized to a streptavidin-coated chip, and binding was measured as a function of concentration. (FIG. 2). […] Furthermore, Compound 1 interacts with quadruplex DNA through a reversible binding interaction, and rapid, complete dissociation can be observed in the sensogram (FIG. 2C).
# SPR experiments were performed with a Biacore T200 (GE Healthcare). […] The c-MYC DNA was then captured (FC2: 1245 Ru) on a Series S Sensor CM5 Chip (GE Healthcare) with amine-coupled Neutravidin (FC1: 4466 Ru, FC2: 5458 Ru). Single Cycle Kinetics (SCK) experiments were carried out with five injections of increasing concentration of analyte solution, which was prepared by a three-fold serial dilution of compound with buffer (10 mM Tris pH 7.5, 100 mM KCl, 3 mM EDTA) containing 3% DMSO. Binding analysis was conducted at a flow rate of 30 μL/min at 25° C. In each run, the association phase and the subsequent dissociation phase were monitored for 1 min and 10 min, respectively. Prior to each compound injection, three buffer injections were made. […]
# [3] = system: MYC expression in L363 cells; assay: Gene expression analysis (Nanostring, qPCR), MYC; format: cell-based, human; settings: L363 cells, 48 hours; 10 μM BRACO-19, 10 μM Compound 1, 7.5 μM Compound 23
# Procedure: (§1) Gene expression analysis was performed on a panel of 770 cancer-associated genes in a multiplexed (nanostring) transcriptional assay. In addition to c-MYC itself, several c-Myc target genes were included in the panel, as were a number of other quadruplex-driven genes. […] Additionally, a third data set was collected comparing Compound 1 treatment to JQ-1 (a BET-bromodomain inhibitor) and quarfloxin (another quadruplex-binding small molecule).
# (§2) The effects of Compound 1 on a number of known quadruplex-driven genes in the panel were examined further (FIG. 6). Expression levels of MYC, RB1, VEGFA, KRAS, and HIF1α, all of which are reported to be under the control of promoter G4s, and are expressed in L363 cells, were included in the panel of genes evaluated by Nanostring as discussed above. […] These changes in gene expression are in line with biophysical measurements of compound affinity. Corresponding data showing similar results is presented for Compounds 1 and 23 in FIGS. 14A and 14B. […] These observations further highlight the ability of Compound 1 and Compound 23 to specifically target the expression of c-Myc and related pathways.
# (§3) The phenotype for c-MYC genetic knockdown in multiple myeloma was achieved through lentiviral transduction of shRNA for c-MYC, derived from the spinoculation of 293T cells and plasmids grown in STBL3 E. coli, and isolated with the Qiagen Plasmid Midi Kit. Aliquots of the plasmids were generously provided by Art Shaffer. RNA of treated myeloma cells at designated time points was isolated with the Qiagen RNeasy kit, and used with the nCounter Human Cancer Reference Kit (NanoString Technologies), surveying changes in expression for […] cancer-related human genes and 6 reference genes. Quantitative changes in expression were analyzed and grouped in the form of a heat map using the programming language, R. All other quantitative statistical packing was performed in GraphPad Prism.
# [4] = system: RB1, VEGFA, KRAS, HIF1α, BCL2 expression in L363 cells; assay: Gene expression analysis (Nanostring, qPCR), other G4-associated genes; format: cell-based, human; settings: L363 cells, 48 hours; 10 μM BRACO-19, 10 μM Compound 1, 7.5 μM Compound 23
# Procedure: as §1, §2, §3
# [5] = Homo sapiens, L-363, viability of L363 cells
# [6] = Homo sapiens, L-363, L363 cells, read-out: Peggy (% c-Myc expression compared to untreated)
Compound,IC50 (L363 cells; [5]),"activity at 10 µM [1, 6]",viability at 10 µM (L363 cells; Homo sapiens),further results
Cc1oc2ccc(O)c(CN3CCCCCC3)c2c1C(=O)Nc1cccc(C(F)(F)F)c1 [Compound 13],3.3 µM,12%,–,–
Cc1oc2ccc(O)c(CNC3CC4CCC3CC4)c2c1C(=O)Nc1ccc(C(F)(F)F)cc1 (stereo not shown) [Compound 35],–,–,100%,–
"CN1CCC[C@H]1CCNC(=O)c1cn2c3c(c(N4CCC(c5cnccn5)C4)c(F)cc3c1=O)Oc1cc3ccccc3cc1-2 (stereo partly shown) [Quarfloxin, reference compound]",–,–,–,binding (SPR) [2]: no evidence of binding
Cc1oc2ccc(O)c(CN3CCCC3)c2c1C(=O)Nc1cccc(C(F)(F)F)c1 [Compound 24],7.8 µM,–,–,"activity at 6 µM ([1]; Homo sapiens, L-363, L363 cells, at 6 μM, read-out: Peggy (% c-Myc expression compared to untreated)): 63%"
Cc1oc2ccc(O)c(CN3CCC(C)CC3)c2c1C(=O)Nc1ccc(C(F)(F)F)cc1 [Compound 26],11.4 µM,–,–,–
Cc1oc2ccc(O)c(CN3CCC(C)CC3)c2c1C(=O)Nc1cccc(C(F)(F)F)c1 [Compound 12],3.4 µM,–,–,Peggy (% c-Myc expression compared to untreated) [1]: 43% (at 10 μM)
Cc1ccc(NC(=O)c2c(C)oc3ccc(O)c(CN4CCCCCC4)c23)c(C)c1 [Compound 3],6.3 µM,52%,–,–
Cc1oc2ccc(O)c(CN3CCC(C)CC3)c2c1C(=O)Nc1cccc(C(F)(F)F)c1 [Compound 20],–,–,–,IC50 (L363 cells; viability of L363 cells): 3.8 µM; Peggy (% c-Myc expression compared to untreated) [1]: 1.4% (at 10 μM)
Cc1oc2ccc(O)c(CN3CC4CCC3C4)c2c1C(=O)Nc1ccc(C(F)(F)F)cc1 (stereo not shown) [Compound 32],–,–,100%,–
Cc1oc2ccc(O)c(CCCN3CCCCCC3)c2c1C(=O)Nc1ccc(C(F)(F)F)cc1 [Compound 31],–,–,100%,–
Cc1ccccc1NC(=O)c1c(C)oc2ccc(O)c(CN3CCCCCC3)c12 [Compound 4],–,73%,75%,–
CCOC(=O)c1c(-c2ccccc2)oc2ccc(O)c(CN3CCCCCC3)c12 [Compound 10],7.1 µM,37%,–,–
Cc1oc2ccc(O)c(CN3CCCC3)c2c1C(=O)Nc1ccc(C(F)(F)F)cc1 [Compound 25],1.6 µM,32%,–,–
Cc1oc2ccc(O)c(CN3CCC[C@H]3C)c2c1C(=O)Nc1ccc(C(F)(F)F)cc1 [Compound 28],6.84 µM,–,–,–
Cc1oc2ccc(O)c(CN3CCC3)c2c1C(=O)Nc1cccc(C(F)(F)F)c1 [Compound 21],> 12 µM,74%,–,–
Cc1oc2ccc(O)c(CN3CCN(C)CC3)c2c1C(=O)Nc1cccc(C(F)(F)F)c1 [Compound 17],> 12 µM,68%,–,–
Cc1oc2ccc(O)c(CNC3CC4CCC3C4)c2c1C(=O)Nc1ccc(C(F)(F)F)cc1 (stereo not shown) [Compound 33],–,–,100%,–
Cc1ccc(NC(=O)c2c(C)oc3ccc(O)c(CN4CCN(C)CC4)c23)cc1 [Compound 2],–,72%,95%,–

Compound,IC50 (L363 cells; [5]),"activity at 10 µM [1, 6]",viability at 10 µM (L363 cells; Homo sapiens),further results
Cc1ccc(NC(=O)c2c(C)oc3ccc(OS(=O)(=O)C(F)(F)F)c(CN4CCCCCC4)c23)cc1 [Compound 16],–,112%,70%,–
Cc1oc2ccc(O)c(CCN3CCCCCC3)c2c1C(=O)Nc1ccc(C(F)(F)F)cc1 [Compound 30],38.2 µM,–,–,–
Cc1oc2ccc(O)c(CN3CCC[C@@H]3C)c2c1C(=O)Nc1ccc(C(F)(F)F)cc1 [Compound 29],4.45 µM,–,–,–
Cc1oc2ccc(O)c(CN3CCCC[C@@H]3C)c2c1C(=O)Nc1ccc(C(F)(F)F)cc1 [Compound 27],25.8 µM,–,–,–
Cc1oc2ccc(O)c(CN3CCC3)c2c1C(=O)Nc1ccc(C(F)(F)F)cc1 [Compound 22],–,27%,100%,–
COc1ccc(NC(=O)c2c(C)oc3ccc(O)c(CN4CCCCCC4)c23)cc1 [Compound 7],7.2 µM,81%,–,–
Cc1oc2ccc(O)c(CN3CCCCC3C)c2c1C(=O)Nc1cccc(C(F)(F)F)c1 (stereo not shown) [Compound 19],3.8 µM,0.56%,–,–
Cc1oc2ccc(O)c(CN3CCCCCC3)c2c1C(=O)Nc1cccc(Cl)c1C [Compound 6],4.9 µM,45%,–,–
Cc1oc2ccc(O)c(CN3CCCCC3)c2c1C(=O)Nc1cccc(C(F)(F)F)c1 [Compound 18],5.2 µM,6.5%,–,–
Cc1oc2ccc(O)c(CN3CCCCCC3)c2c1C(=O)NC1CCCCC1 [Compound 8],–,76%,–,–
Cc1ccccc1NC(=O)c1c(C)oc2ccc(O)c(CN3CCCCC3)c12 [Compound 5],–,89%,85%,–
Cc1ccc(NC(=O)c2c(C)oc3cccc(CN4CCCCCC4)c23)cc1 [Compound 15],–,80%,53%,–
CCOC(=O)c1c(C)n(C)c2ccc(O)c(CN3CCC(C)CC3)c12 [Compound 11],–,69%,89%,–
Cc1ccc(NC(=O)c2c(C)oc3ccc(O)cc23)cc1 [Compound 14],–,106%,84%,–
"CN(C)c1ccc(Nc2c3ccc(NC(=O)CCN4CCCC4)cc3nc3cc(NC(=O)CCN4CCCC4)ccc23)cc1 [BRACO-19, reference compound]",–,–,–,c-Myc expression (qPCR) [3]: reduced c-Myc expression; expression of other G-quadruplex containing genes (qPCR) [4]: minimally affecting expression of other G-quadruplex containing genes
Cc1oc2ccc(O)c(CN3CCCC3)c2c1C(=O)Nc1ccccc1 [Compound 9],–,96%,100%,–
Cc1oc2ccc(O)c(CNC3CC4CCC3CC4)c2c1C(=O)Nc1ccc(C(F)(F)F)cc1 (stereo not shown) [Compound 34],9.83 µM,–,–,–
